Assay results published in PubChem BioAssay AID1845210 (Molecular Pharmacology Branch, DTP, NCI, 2023).

Tested on: NCI-H226 complex tumor spheroids, viability
Experiment: Anticancer human tumor NCI-H226 cell line growth inhibition;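 further: spheroids exposed to compound for 7 days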;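 on viability, T/C: 100% = DMSO vehicle control viability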
Settings: for IC50: curve of first compound; for viability, T/C: stronger effect = lower value
Excerpt: Multicellular complex tumor spheroid response to DNA repair inhibitors in combination with DNA-damaging drugs
This study explores the anticancer activities of DNA-damaging drugs and inhibitors of DNA damage repair, both as single agents and in combinations. Complex tumor spheroids comprised of malignant cells, endothelial cells and mesenchymal stem cells served as an in vitro model for human solid tumors. This model system incorporates physiologically relevant features and patient-derived or established malignant cell lines with clinically relevant genetic alterations from many tumor types. Twenty-six patient-derived or established malignant cell lines were evaluated representing sarcoma, melanoma, small cell lung cancer (SCLC), non-small cell lung cancer (NSCLC), as well as bladder, ovarian and pancreatic cancers. The concentration ranges selected for each drug and investigational agent were based upon clinically achievable concentrations if the clinical Cmax of the agent was known.
Compounds. The drugs and compounds olaparib (NSC753686), talazoparib (NSC767125), berzosertib (NSC777718), elimusertib (NSC800525), nedisertib (NSC802822), VX-984 (NSC792969), AZD-1390 (NSC803789), temozolomide (NSC362856), topotecan (NSC609699), trabectedin (NSC813783), staurosporine (NSC755774), and gemcitabine (NSC613327) were obtained from the National Cancer Institute (NCI) Developmental Therapeutics Program Chemical Repository. The FDA-approved anticancer drug set is available from the Developmental Therapeutics Program at https://dtp.cancer.gov/organization/dscb/obtaining/available_plates.htm. […] The stock solutions were prepared in dimethyl sulfoxide (DMSO, Sigma-Aldrich, St. Louis, MO, cat. D2650) at 400-fold the tested concentration and stored at -70 degrees C. Prior to their use, the stock solutions were diluted in fresh medium and the final DMSO concentration in the assay was 0.25% (v/v). All drugs and investigational agents were tested over a range starting from a high concentration at or near the clinical Cmax and decreasing in half-log increments. If the clinical Cmax for an agent had not been determined, the highest concentration tested was 10 microM.
Cell Lines. The patient-derived cancer cell (PDC) lines: 156681-154-R-J1-PDC, 283228-195-R-J1-PDC, 287954-098-R-J1-PDC, 292921-168-R-J2-PDC, 349418-098-R-PDC, 425362-245-T-J1-PDC, 556581-035-R-J1-PDC, and BL0293-F563-PDC were received from the NCI Patient-Derived Models Repository (PDMR, https://pdmr.cancer.gov). The established cell lines HS-SY-2 (RRID:CVCL_8719), MPNST, and SYO-1 (RRID:CVCL_7146) were obtained from the Sloan Kettering Institute. The alveolar soft parts sarcoma cell line ASPS-1 (RRID:CVCL_S738) was established at the NCI and grown from internal seed stocks. The following established cell lines were purchased from the American Type Culture Collection (ATCC, Manassas, VA): G-401 (ATCC, cat. CRL-1441, RRID:CVCL_0270), SW982 (ATCC, cat. HTB-93, RRID:CVCL_1734), VA-ES-BJ (ATCC, cat. CRL-2138, RRID:CVCL_1785), NCI-H719 (ATCC, cat. CRL-5837, RRID:CVCL_1582), NCI-H196 (ATCC, cat. CRL-5823, RRID:CVCL_1509), NCI-H841 (ATCC, cat. CRL-5845, RRID:CVCL_1595), NCI-H1618 (ATCC, cat. CRL-5879, RRID:CVCL_1480), NCI-H1876 (ATCC, cat. CRL-5902, RRID:CVCL_1503), DMS 114 (ATCC, cat. CRL-2066; RRID:CVCL_1174), NCI-H211 (ATCC, cat. CRL-5824; RRID:CVCL_1529), and SW 1271 (ATCC, cat. CRL-2177, RRID:CVCL_1716). The small cell lung cancer cell line COR-L88 was purchased from Sigma-Aldrich (cat. 92031917-1VL, RRID:CVCL_1141). The non-small cell lung cancer cell lines NCI-H226 (RRID:CVCL_1544) and NCI-H322M (RRID:CVCL_1557) were established at the NCI and grown from internal seed stocks. Pooled donor human umbilical vein endothelial cells (HUVEC, Lonza, cat. CC-2519) and human mesenchymal stem cells (hMSC, Lonza, cat. PT-2501) were purchased from Lonza (Walkersville, MD).
Cell Culture. All cells were maintained in an incubator at 37 degrees C and 5% CO2 with 95% humidity. […]

SMILES: Cc1cc(C)c(CNC(=O)c2cc(-c3ccc(CN4CCOCC4)cc3)cc3c2cnn3C2CCCC2)c(=O)[nH]1 + CC[C@@]1(O)C(=O)OCc2c1cc1n(c2=O)Cc2cc3c(CN(C)C)c(O)ccc3nc2-1
- IC50 (second compound 0.003 µM): > 10000 nM
- IC50 (second compound 0.00949 µM): > 10000 nM
- IC50 (second compound 0.03 µM): > 10000 nM
- IC50 (second compound 0.0949 µM): > 10000 nM
- IC50 (second compound 0.3 µM): > 10000 nM
- viability, T/C (second compound 0.003 µM, first compound 0.0316 µM): 101%
- viability, T/C (second compound 0.003 µM, first compound 0.1 µM): 96.8%
- viability, T/C (second compound 0.003 µM, first compound 0.316 µM): 98.3%
- viability, T/C (second compound 0.003 µM, first compound 1 µM): 85.3%
- viability, T/C (second compound 0.003 µM, first compound 3.16 µM): 95.7%
- viability, T/C (second compound 0.003 µM, first compound 10 µM): 108%
- viability, T/C (second compound 0.00949 µM, first compound 0.0316 µM): 87.2%
- viability, T/C (second compound 0.00949 µM, first compound 0.1 µM): 88.8%
- viability, T/C (second compound 0.00949 µM, first compound 0.316 µM): 92.4%
- viability, T/C (second compound 0.00949 µM, first compound 1 µM): 82.9%
- viability, T/C (second compound 0.00949 µM, first compound 3.16 µM): 78.6%
- viability, T/C (second compound 0.00949 µM, first compound 10 µM): 96.3%
- viability, T/C (second compound 0.03 µM, first compound 0.0316 µM): 91.8%
- viability, T/C (second compound 0.03 µM, first compound 0.1 µM): 78.3%
- viability, T/C (second compound 0.03 µM, first compound 0.316 µM): 87.6%
- viability, T/C (second compound 0.03 µM, first compound 1 µM): 88.9%
- viability, T/C (second compound 0.03 µM, first compound 3.16 µM): 79.7%
- viability, T/C (second compound 0.03 µM, first compound 10 µM): 95.3%
- viability, T/C (second compound 0.0949 µM, first compound 0.0316 µM): 70.7%
- viability, T/C (second compound 0.0949 µM, first compound 0.1 µM): 72.9%
- viability, T/C (second compound 0.0949 µM, first compound 0.316 µM): 71%
- viability, T/C (second compound 0.0949 µM, first compound 1 µM): 77.5%
- viability, T/C (second compound 0.0949 µM, first compound 3.16 µM): 76.1%
- viability, T/C (second compound 0.0949 µM, first compound 10 µM): 106%
- viability, T/C (second compound 0.3 µM, first compound 0.0316 µM): 64%
- viability, T/C (second compound 0.3 µM, first compound 0.1 µM): 62.4%
- viability, T/C (second compound 0.3 µM, first compound 0.316 µM): 67%
- viability, T/C (second compound 0.3 µM, first compound 1 µM): 68.5%
- viability, T/C (second compound 0.3 µM, first compound 3.16 µM): 79.8%
- viability, T/C (second compound 0.3 µM, first compound 10 µM): 95.2%

SMILES: Cc1sc2c(c1C)C(c1ccc(Cl)cc1)=NC(CC(=O)Nc1ccc(O)cc1)c1nnc(C)n1-2 (stereo not given) + CC[C@@]1(O)C(=O)OCc2c1cc1n(c2=O)Cc2cc3c(CN(C)C)c(O)ccc3nc2-1
- IC50 (second compound 0.003 µM): 1460 nM
- IC50 (second compound 0.00949 µM): 1290 nM
- IC50 (second compound 0.03 µM): 431 nM
- IC50 (second compound 0.0949 µM): 94 nM
- IC50 (second compound 0.3 µM): < 9.49 nM
- viability, T/C (second compound 0.003 µM, first compound 0.00949 µM): 71.9%
- viability, T/C (second compound 0.003 µM, first compound 0.03 µM): 68.5%
- viability, T/C (second compound 0.003 µM, first compound 0.0949 µM): 65.8%
- viability, T/C (second compound 0.003 µM, first compound 0.3 µM): 60.2%
- viability, T/C (second compound 0.003 µM, first compound 0.949 µM): 54%
- viability, T/C (second compound 0.003 µM, first compound 3 µM): 43.9%
- viability, T/C (second compound 0.00949 µM, first compound 0.00949 µM): 69.9%
- viability, T/C (second compound 0.00949 µM, first compound 0.03 µM): 62%
- viability, T/C (second compound 0.00949 µM, first compound 0.0949 µM): 68.9%
- viability, T/C (second compound 0.00949 µM, first compound 0.3 µM): 61%
- viability, T/C (second compound 0.00949 µM, first compound 0.949 µM): 50%
- viability, T/C (second compound 0.00949 µM, first compound 3 µM): 43%
- viability, T/C (second compound 0.03 µM, first compound 0.00949 µM): 63.9%
- viability, T/C (second compound 0.03 µM, first compound 0.03 µM): 57.9%
- viability, T/C (second compound 0.03 µM, first compound 0.0949 µM): 53.9%
- viability, T/C (second compound 0.03 µM, first compound 0.3 µM): 54.2%
- viability, T/C (second compound 0.03 µM, first compound 0.949 µM): 45.4%
- viability, T/C (second compound 0.03 µM, first compound 3 µM): 44.6%
- viability, T/C (second compound 0.0949 µM, first compound 0.00949 µM): 71.3%
- viability, T/C (second compound 0.0949 µM, first compound 0.03 µM): 52.9%
- viability, T/C (second compound 0.0949 µM, first compound 0.0949 µM): 50.5%
- viability, T/C (second compound 0.0949 µM, first compound 0.3 µM): 54.9%
- viability, T/C (second compound 0.0949 µM, first compound 0.949 µM): 43%
- viability, T/C (second compound 0.0949 µM, first compound 3 µM): 41.6%
- viability, T/C (second compound 0.3 µM, first compound 0.00949 µM): 50.3%
- viability, T/C (second compound 0.3 µM, first compound 0.03 µM): 45.8%
- viability, T/C (second compound 0.3 µM, first compound 0.0949 µM): 43.6%
- viability, T/C (second compound 0.3 µM, first compound 0.3 µM): 44.4%
- viability, T/C (second compound 0.3 µM, first compound 0.949 µM): 37%
- viability, T/C (second compound 0.3 µM, first compound 3 µM): 27.1%
